# Earlier results as cited in patent US20240050339A1, “FORMULATION COMPRISING P-MENTHANE-3,8-DIOL” (priority 2020, published 2024).
# Tests used:
# [1] = tested on: SARS-CoV-2 England-2 isolate; conditions: one minute, mixed with the virus in the liquid phase
# [2] = tested on: Urbani SARS virus; conditions: PMD alone, from U.S. Pat. No. 7,872,051
SMILES,anti-viral activity in liquid suspension [1],maximum log reduction [2]
"CC(C)O [isopropanol, propan-2-ol]",have anti-viral activity,
CCO [ethanol],have anti-viral activity,
"CC1CCC(C(C)(C)O)C(O)C1 (stereo not drawn) [PMD, 2-(2-Hydroxypropan-2-yl)-5-methylcyclohexan-1-ol]",,2.5 log
